Assay results taken from US20250255850A1, “PHARMACEUTICAL COMPOSITIONS FOR TREATING NEUROLOGICAL CONDITIONS” (YISSUM RESEARCH DEVELOPMENT COMPANY OF THE HEBREW …, priority 2021, published 2025).

Tests used:
SHANK3 mutant mice = experiment: Three-chamber sociability test, SHANK3 mutant mice; format: in vivo, mouse
Experimental: Three-chambered sociability test (see, FIG. 4B): Sociability and preference for social novelty and social recognition were tested in a three-chambered apparatus. The subjected mouse was first placed in the central, neutral chamber and allowed to explore for 10 minutes with all the doors closed. Next, doors were opened and the mouse was allowed to freely explore the other two empty chambers (1 and 2) for an additional 10 minutes. Lack of side preference was confirmed during this habituation.
Two cylindrical wire cages were placed, one in chamber 1 and the other in chamber 2. For the sociability test, the test animal was introduced to the middle chamber and allowed to adjust for 5 minutes. Then, an unfamiliar mouse was introduced into a wire cage in one of the side-chambers, and the other side-chamber remained empty. The time spent by the test mouse exploring the wire cage with an unfamiliar mouse inside was recorded for 5 minutes.
Next, to examine social memory, novel mice is introduced to the empty cage and the tested mice is examined whether they are interested in the novel mice compared to the familiar.
A dose dependent study was conducted to determine the optimal dose that may produce the greatest effect on mice behavior. The SHANK3 mutant mice (n=5 for each group) were treated with the 7-NI (i.p) at doses of 0, 20, 50, and 80 mg/kg. This was followed by a set of behavioral tests to assess the proper dose of 7-NI that can reverse the autistic phenotypes observed in this model.
A three-chamber sociability test was conducted to evaluate the interest of mice in engaging in social interaction with a stranger mouse, as described hereinabove and shown in FIG. 4B. […] Comparing to the 50 mg/kg, although statistically the difference is not significant, the 80 mg/kg-treated group spent more time interacting with the stranger mouse.
A 100 μL injection of the poly(sebacic acid-ricinoleic acid) (PSARA) gel formulation with 7NI was used to evaluate its effect in reversing ASD-like behaviors in SHANK3 mice. […]

[1] = Solubility of 7-nitroindazole in PNL formulation of Table 1; format: physicochemical; conditions: PNL formulation of Table 1, clear liquid
Excerpt: Table 1 below presents an exemplary PNL formulation according to some embodiments of the present invention.
The formulation can be prepared by mixing the components at room or elevated temperature to form a clear liquid which 7-nitroindazole is soluble in at about 20% w/v.

nNOS = molecular target: T1, nNOS (Homo sapiens, UniProt P29475); experiment: NADPH-diaphorase activity assay in SH-SY5Y cell lysates; format: cell-based; conditions: 7-NI 100 μM 24 hours or 20 nM nNOS siRNA 24 hours
T1 construct: SH-SY5Y cells grown in six-well culture plates were lysed in 50 mM Tris-HCl buffer (pH 7.4); endogenous in cells; host or cells: SH-SY5Y (human neuroblastoma, ATCC)
Experimental: Human NB SH-SY5Y cells were obtained from the American Type Culture Collection (ATCC) and maintained in Dulbecco's modified Eagle's medium (DMEM) and Ham's F-12 (1:1) supplemented with 10% fetal bovine serum, 2 mM L-glutamine, and 100 U/ml penicillin-G/100 […] streptomycin in a humidified atmosphere (37° C., 5% CO2). Cells were plated onto 25 cm^2 and 75 cm^2 plates at a density of 7.0×10^5 and 2.1×10^6 cells/cm^2 respectively for Western blotting (WB) and 1×10^5 for immunofluorescence. The SH-SY5Y cells were treated with 100 μM 7-nitroindazole (7-NI) for 24 hours (Fujibayashi et al., 2015). This concentration was confirmed in a dose-response experiment (FIG. 14A) using an MTT viability assay. […]
The NADPH-diaphorase activity assay was used to determine the NOS activity based on the NADPH-dependent reduction of nitro-blue tetrazolium salt (NBT) to visible formazan (Amaroli and Chessa, 2012; Seckler et al., 2020). […] After a 15 min incubation period at 37° C., the production of formazan was measured spectrophotometrically at 585 nm. The data were expressed as absorbance units and normalized for the protein content of each sample. Protein concentration was measured by the bicinchoninic acid (BCA) protein assay using BSA as a standard (Ortiz-Ortiz et al., 2009). Released NO was measured using a Griess Assay Kit (Beyotime, Shanghai, China) according to the manufacturer's instructions.

T1 sequence (P29475 whole entry): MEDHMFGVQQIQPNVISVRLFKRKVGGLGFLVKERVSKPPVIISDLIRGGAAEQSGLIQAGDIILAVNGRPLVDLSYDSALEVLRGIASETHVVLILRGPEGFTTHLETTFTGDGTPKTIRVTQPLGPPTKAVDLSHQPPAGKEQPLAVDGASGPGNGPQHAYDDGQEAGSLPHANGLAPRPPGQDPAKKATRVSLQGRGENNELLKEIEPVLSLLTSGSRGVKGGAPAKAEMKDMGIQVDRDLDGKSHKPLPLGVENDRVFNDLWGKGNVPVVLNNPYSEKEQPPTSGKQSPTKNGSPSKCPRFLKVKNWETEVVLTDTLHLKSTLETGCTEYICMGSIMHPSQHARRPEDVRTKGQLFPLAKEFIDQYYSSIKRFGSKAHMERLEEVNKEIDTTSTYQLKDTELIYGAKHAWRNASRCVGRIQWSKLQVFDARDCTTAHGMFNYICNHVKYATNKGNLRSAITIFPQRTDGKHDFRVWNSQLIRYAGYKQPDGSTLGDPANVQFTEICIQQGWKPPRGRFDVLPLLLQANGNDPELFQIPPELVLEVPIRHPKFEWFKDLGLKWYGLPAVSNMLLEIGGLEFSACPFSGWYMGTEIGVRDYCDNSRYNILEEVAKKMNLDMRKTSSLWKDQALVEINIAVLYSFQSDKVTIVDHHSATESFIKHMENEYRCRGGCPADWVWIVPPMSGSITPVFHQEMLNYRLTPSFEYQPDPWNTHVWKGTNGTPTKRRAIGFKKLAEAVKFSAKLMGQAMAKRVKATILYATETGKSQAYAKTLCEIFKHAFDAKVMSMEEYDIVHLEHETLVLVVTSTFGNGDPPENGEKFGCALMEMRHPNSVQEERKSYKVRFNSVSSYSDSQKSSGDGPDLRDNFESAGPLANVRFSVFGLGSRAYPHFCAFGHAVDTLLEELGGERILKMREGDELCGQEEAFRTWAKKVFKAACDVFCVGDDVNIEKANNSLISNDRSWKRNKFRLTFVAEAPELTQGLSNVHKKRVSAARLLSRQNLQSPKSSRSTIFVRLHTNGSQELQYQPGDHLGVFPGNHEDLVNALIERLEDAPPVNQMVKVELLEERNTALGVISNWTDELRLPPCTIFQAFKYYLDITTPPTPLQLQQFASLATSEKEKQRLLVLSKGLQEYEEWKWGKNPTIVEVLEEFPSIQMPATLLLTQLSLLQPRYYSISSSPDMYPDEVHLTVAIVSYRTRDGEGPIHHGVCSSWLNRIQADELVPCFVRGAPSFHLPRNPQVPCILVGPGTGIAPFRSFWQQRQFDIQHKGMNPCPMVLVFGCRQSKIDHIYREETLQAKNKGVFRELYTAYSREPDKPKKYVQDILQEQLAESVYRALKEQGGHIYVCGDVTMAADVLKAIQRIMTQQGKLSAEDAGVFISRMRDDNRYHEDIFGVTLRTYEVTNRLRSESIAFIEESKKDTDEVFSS

solubility in PNL formulation [1]: about 20 % w/v
NADPH diaphorase activity (nNOS): significantly inhibited
SMILES: O=[N+]([O-])c1cccc2cn[nH]c12 [7-NI, 7-nitroindazole]
time interacting with the stranger mouse (first session) (SHANK3 mutant mice; 7-NI 80 mg/kg compared to 20 mg/kg): spent significantly more time interacting with the stranger mouse
time interacting with the novel mouse (S2) (second session) (SHANK3 mutant mice; 7-NI 80 mg/kg compared to lower doses): spent more time interacting with the novel mouse (S2)
dose yielding the greatest reversal of the autistic phenotypes (SHANK3 mutant mice; doses 0, 20, 50, 80 mg/kg i.p.): 80 mg/kg
